Laboratory results: ChEMBL document CHEMBL4043173, “Aminosquaraines as potential photodynamic agents: Synthesis and evaluation of in vitro cytotoxicity” (Bioorg Med Chem Lett, 2017)

How the values were obtained:
[1] = Dark toxicity against human NCI-H460 cells assessed as growth inhibition at 0.1 uM after 24 hrs by SRB assay relative to control; type: cell-based; details: read-out: GI
NCI-H460 = test: Photocytotoxicity against human NCI-H460 cells assessed as growth inhibition preincubated for 24 hrs followed by irradiation with light at 23 to 24 uW/cm'2 for 30 mins measured after 24 hrs by SRB assay; type: functional; details: NCI-H460, light or radiation study
HepG2 = test: Photocytotoxicity against human HepG2 cells assessed as growth inhibition preincubated for 24 hrs followed by irradiation with light at 23 to 24 uW/cm'2 for 30 mins measured after 24 hrs by SRB assay; type: functional; details: HepG2, light or radiation study
HeLa = test: Photocytotoxicity against human HeLa cells assessed as growth inhibition preincubated for 24 hrs followed by irradiation with light at 23 to 24 uW/cm'2 for 30 mins measured after 24 hrs by SRB assay; type: functional; details: light or radiation study
[2] = Dark toxicity against porcine PLP2 cells assessed as growth inhibition after 24 hrs by SRB assay; details: Sus scrofa
[3] = Dark toxicity against human HepG2 cells assessed as growth inhibition after 24 hrs by SRB assay; type: cell-based
[4] = Dark toxicity against human HepG2 cells assessed as growth inhibition at 0.1 uM after 24 hrs by SRB assay relative to control; type: cell-based; details: read-out: GI
[5] = Dark toxicity against human HeLa cells assessed as growth inhibition at 0.1 uM after 24 hrs by SRB assay relative to control; type: cell-based; details: read-out: GI
[6] = Dark toxicity against human HeLa cells assessed as growth inhibition after 24 hrs by SRB assay; type: cell-based
[7] = Dark toxicity against human MCF7 cells assessed as growth inhibition at 0.1 uM after 24 hrs by SRB assay relative to control; type: cell-based; details: read-out: GI
MCF7 = test: Photocytotoxicity against human MCF7 cells assessed as growth inhibition preincubated for 24 hrs followed by irradiation with light at 23 to 24 uW/cm'2 for 30 mins measured after 24 hrs by SRB assay; type: functional; details: MCF7, light or radiation study
[8] = Photocytotoxicity against porcine PLP2 cells assessed as growth inhibition preincubated for 24 hrs followed by irradiation with light at 23 to 24 uW/cm'2 for 30 mins measured after 24 hrs by SRB assay; details: Sus scrofa
[9] = Dark toxicity against porcine PLP2 cells assessed as growth inhibition at 0.1 uM after 24 hrs by SRB assay relative to control; details: Sus scrofa, read-out: GI
[10] = Dark toxicity against human MCF7 cells assessed as growth inhibition after 24 hrs by SRB assay; type: cell-based
[11] = Dark toxicity against human NCI-H460 cells assessed as growth inhibition after 24 hrs by SRB assay; type: cell-based

Structure (SMILES) | inhibition at 24 h, 0.1 µM [1] | GI50 (NCI-H460) | GI50 (HepG2) | GI50 (HeLa) | GI50 at 24 h [2] | GI50 at 24 h [3] | inhibition at 24 h, 0.1 µM [4] | inhibition at 24 h, 0.1 µM [5] | GI50 at 24 h [6] | inhibition at 24 h, 0.1 µM [7] | GI50 (MCF7) | GI50 at 24 h [8] | inhibition at 24 h, 0.1 µM [9] | GI50 at 24 h [10] | GI50 at 24 h [11]
CCN1/C(=C/C2=C(N(C)CCO)C(=C/c3sc4ccccc4[n+]3CC)/C2=O)Sc2ccccc21 | < 20% | 0.455 µM | 0.271 µM | 0.273 µM | 0.717 µM | 7.54 µM | < 20% | < 20% | 2.64 µM | < 20% | 0.239 µM | 0.471 µM | < 20% | 0.737 µM | 0.767 µM
CCN1/C(=C/C2=C(N(CCO)CCO)C(=C/c3sc4ccccc4[n+]3CC)/C2=O)Sc2ccccc21 | < 20% | 0.404 µM | 0.722 µM | 0.088 µM | 0.621 µM | 4.49 µM | < 20% | < 20% | > 10 µM | < 20% | 0.257 µM | 0.34 µM | < 20% | 5.34 µM | 0.94 µM
CCN1/C(=C/C2=C(N)C(=C/c3sc4ccccc4[n+]3CC)/C2=O)Sc2ccccc21 | < 20% | 8.35 µM | 0.665 µM | 0.288 µM | > 10 µM | 4.57 µM | < 20% | < 20% | > 10 µM | < 20% | 0.918 µM | 4.98 µM | < 20% | > 10 µM | > 10 µM
CCN1/C(=C/C2=C(NCCO)C(=C/c3sc4ccccc4[n+]3CC)/C2=O)Sc2ccccc21 | < 20% | 0.44 µM | 0.11 µM | 0.097 µM | 3.73 µM | 7.83 µM | < 20% | < 20% | > 10 µM | < 20% | 0.224 µM | 0.385 µM | < 20% | 7.36 µM | 8.82 µM
CCN1/C(=C/C2=C(NC)C(=C/c3sc4ccccc4[n+]3CC)/C2=O)Sc2ccccc21 | < 20% | 0.171 µM | 0.078 µM | 0.071 µM | 0.41 µM | 7.08 µM | < 20% | < 20% | 2.22 µM | < 20% | 0.054 µM | 0.126 µM | < 20% | 0.576 µM | 0.507 µM
